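Five concentrations, 48 hours, 96-well plates. GI50 is the concentration that inhibits growth by half.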 The source made the active and inactive calls. Rule as the data show it: active = GI50 up to about 1.1 µM and inactive = higher.
What was measured:
Experiment in all cases: inhibition of tumour cell growth, NCI panel, 48 h
OVCAR-5 = test system: OVCAR-5
PC-3 = test system: PC-3
A549 = test system: A549
KM12 = test system: KM12
SF-539 = test system: SF-539
OVCAR-3 = test system: OVCAR-3
MOLT-4 = test system: MOLT-4
SR = test system: SR
ACHN = test system: ACHN
OVCAR-4 = test system: OVCAR-4
CCRF-CEM = test system: CCRF-CEM
M14 = test system: M14
UACC-257 = test system: UACC-257
A498 = test system: A498
UO-31 = test system: UO-31
TK-10 = test system: TK-10
SF-268 = test system: SF-268
NCI-H226 = test system: NCI-H226
NCI-H522 = test system: NCI-H522

Structure (SMILES) | GI50 (OVCAR-5) | GI50 (PC-3) | GI50 (A549) | GI50 (KM12) | GI50 (SF-539) | GI50 (OVCAR-3) | GI50 (MOLT-4) | GI50 (SR) | GI50 (ACHN) | GI50 (OVCAR-4) | GI50 (CCRF-CEM) | GI50 (M14) | GI50 (UACC-257) | GI50 (A498) | GI50 (UO-31) | GI50 (TK-10) | GI50 (SF-268) | GI50 (NCI-H226) | GI50 (NCI-H522)
O=c1[nH]cnc2c1ncn2C1SC(CO)C(O)C1O (stereo unspecified) | > 100 µM (inactive) | > 100 µM (inactive) | > 100 µM (inactive) | > 100 µM (inactive) | > 100 µM (inactive) | > 100 µM (inactive) | > 100 µM (inactive) | > 100 µM (inactive) | > 100 µM (inactive) | > 100 µM (inactive) | > 100 µM (inactive) | > 100 µM (inactive) | > 100 µM (inactive) | > 100 µM (inactive) | > 100 µM (inactive) | > 100 µM (inactive) | > 100 µM (inactive) | > 100 µM (inactive) | > 100 µM (inactive)
Cc1ccc(N(C=O)c2c([N+](=O)[O-])cc([N+](=O)[O-])c3c2=[N+]([O-])CN=3)cc1 | > 100 µM (inactive) | 20.4 µM (inactive) | > 100 µM (inactive) | 43.8 µM (inactive) | 32 µM (inactive) | 24.2 µM (inactive) | 23.9 µM (inactive) | 24.9 µM (inactive) | 24.8 µM (inactive) | 30.9 µM (inactive) |  | 20.8 µM (inactive) | 21 µM (inactive) | 39.6 µM (inactive) | 29.3 µM (inactive) | 35.9 µM (inactive) | 36 µM (inactive) | > 100 µM (inactive) | 19.2 µM (inactive)
N#Cc1cnc(N)nc1NCC1(CO)CC(CCc2ccccc2)C1 (stereo unspecified) | > 100 µM (inactive) | > 91.2 µM (inactive) | 14.3 µM (inactive) | > 85.5 µM (inactive) | > 100 µM (inactive) | > 90.4 µM (inactive) | 3.15 µM (inactive) | 20.1 µM (inactive) | > 33.5 µM (inactive) | > 100 µM (inactive) | > 100 µM (inactive) | > 100 µM (inactive) | 42.1 µM (inactive) | 29 µM (inactive) | 20.3 µM (inactive) | > 61.5 µM (inactive) | > 55.6 µM (inactive) | > 100 µM (inactive) | > 55.2 µM (inactive)
O=C(/C=C/c1ccc(O)cc1)c1ccc2c(c1)OCO2 | 27.4 µM (inactive) | 24.6 µM (inactive) | 19.4 µM (inactive) | 17 µM (inactive) | 13.8 µM (inactive) | 16.5 µM (inactive) | 13.5 µM (inactive) | 10.2 µM (inactive) | 21.9 µM (inactive) | 21.1 µM (inactive) | 1.21 µM (inactive) | 18.5 µM (inactive) | 18.6 µM (inactive) | 23.8 µM (inactive) | 18.1 µM (inactive) |  | 23.8 µM (inactive) | 15.5 µM (inactive) | 12.8 µM (inactive)
O=C(/C=C\c1ccsc1)c1ccccc1 | 16.1 µM (inactive) | 11.1 µM (inactive) |  | 2.97 µM (inactive) | 7.06 µM (inactive) | 14.7 µM (inactive) | 2.94 µM (inactive) | 2.38 µM (inactive) | 8.05 µM (inactive) | 3.94 µM (inactive) |  | 8.47 µM (inactive) | 16.6 µM (inactive) | 5.31 µM (inactive) | 7.1 µM (inactive) | 15 µM (inactive) | 6.9 µM (inactive) | 16.5 µM (inactive) | 1.68 µM (inactive)
OCCCN=C1CCCCC1 | > 100 µM (inactive) | > 100 µM (inactive) | > 100 µM (inactive) | > 100 µM (inactive) | > 100 µM (inactive) | > 100 µM (inactive) | > 100 µM (inactive) | > 100 µM (inactive) | > 100 µM (inactive) | > 100 µM (inactive) |  | > 100 µM (inactive) | > 100 µM (inactive) | > 100 µM (inactive) | > 100 µM (inactive) | > 100 µM (inactive) | > 100 µM (inactive) | > 100 µM (inactive) | 77.4 µM (inactive)
Cc1ccc(NC(=O)CC(=O)N2N=C(N3CCCCC3)CC2c2ccccc2)cc1 (stereo unspecified) | > 100 µM (inactive) | > 100 µM (inactive) | > 100 µM (inactive) | > 100 µM (inactive) |  | > 100 µM (inactive) | > 100 µM (inactive) | > 100 µM (inactive) | > 100 µM (inactive) | > 100 µM (inactive) | > 100 µM (inactive) | > 100 µM (inactive) | > 100 µM (inactive) | > 100 µM (inactive) | > 100 µM (inactive) | > 100 µM (inactive) | > 100 µM (inactive) | > 100 µM (inactive) | > 100 µM (inactive)
CC(=O)Nc1ccc2cc3c(nc2n1)c1cccnc1n3S(=O)(=O)c1ccccc1 | > 100 µM (inactive) | > 100 µM (inactive) | > 100 µM (inactive) | > 100 µM (inactive) |  | > 100 µM (inactive) | > 100 µM (inactive) | 28.3 µM (inactive) | > 100 µM (inactive) | > 100 µM (inactive) | > 100 µM (inactive) | > 100 µM (inactive) | > 100 µM (inactive) | > 100 µM (inactive) | 0.195 µM (active) | > 100 µM (inactive) | > 100 µM (inactive) | > 100 µM (inactive) | > 100 µM (inactive)
CCOC(=O)/C(C#N)=C/c1ccnc2ccccc12 | > 100 µM (inactive) | 36.9 µM (inactive) | > 100 µM (inactive) | 32.5 µM (inactive) | 20.2 µM (inactive) | 53.7 µM (inactive) | 63.5 µM (inactive) | 2.28 µM (inactive) | > 100 µM (inactive) | > 100 µM (inactive) |  | 56.9 µM (inactive) | > 100 µM (inactive) | > 100 µM (inactive) |  | > 100 µM (inactive) | > 100 µM (inactive) | > 100 µM (inactive) | > 100 µM (inactive)
C=CCN1C(=O)/C(=C/c2ccccc2)N=C1SC/C=C/C |  | 22.3 µM (inactive) | 39.3 µM (inactive) | 37.4 µM (inactive) | > 100 µM (inactive) | > 100 µM (inactive) |  | 6.67 µM (inactive) | 80.4 µM (inactive) | 31.2 µM (inactive) | 27.9 µM (inactive) | 71.1 µM (inactive) | 28.3 µM (inactive) | 43.7 µM (inactive) | 39.9 µM (inactive) | 79.1 µM (inactive) | 57.9 µM (inactive) | 31.8 µM (inactive) | 33 µM (inactive)
O=C(Nc1ccc(Cl)cc1)NS(=O)(=O)c1c(-c2ccccc2)oc2ccccc2c1=O | > 100 µM (inactive) | 56.8 µM (inactive) | 39 µM (inactive) | 36.2 µM (inactive) | 47.9 µM (inactive) |  | 98.6 µM (inactive) | 24.2 µM (inactive) | 27.1 µM (inactive) | > 100 µM (inactive) | 33.9 µM (inactive) |  | > 100 µM (inactive) | 33 µM (inactive) | 38.5 µM (inactive) | 23 µM (inactive) | > 100 µM (inactive) | > 100 µM (inactive) | 1.97 µM (inactive)
